According to BindingDB's records for doi:10.1111/cbdd.12822 (Wuhan University of Technology, 2016):

Assays:
[1] = molecular target: T1, Amine oxidase [flavin-containing] A (Rattus norvegicus, UniProt P21396); assay: Monoamine Oxidase Assay; settings: pH 7.4; 38 °C
T1 sequence (P21396 whole entry): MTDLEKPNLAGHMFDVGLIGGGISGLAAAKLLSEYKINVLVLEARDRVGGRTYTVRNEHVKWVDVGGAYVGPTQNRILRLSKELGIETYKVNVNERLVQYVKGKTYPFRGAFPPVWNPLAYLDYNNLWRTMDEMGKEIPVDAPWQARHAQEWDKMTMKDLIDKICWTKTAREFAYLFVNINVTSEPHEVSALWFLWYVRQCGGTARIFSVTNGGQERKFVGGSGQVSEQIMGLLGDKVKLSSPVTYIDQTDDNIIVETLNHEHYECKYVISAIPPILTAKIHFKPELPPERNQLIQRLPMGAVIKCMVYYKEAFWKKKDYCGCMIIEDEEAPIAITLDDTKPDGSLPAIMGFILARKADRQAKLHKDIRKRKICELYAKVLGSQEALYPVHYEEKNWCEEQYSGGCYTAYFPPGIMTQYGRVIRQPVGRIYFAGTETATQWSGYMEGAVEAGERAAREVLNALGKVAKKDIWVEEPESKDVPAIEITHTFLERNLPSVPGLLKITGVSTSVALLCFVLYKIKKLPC

[2] = molecular target: T2, Amine oxidase [flavin-containing] B (Rattus norvegicus, UniProt P19643); assay: Monoamine Oxidase Assay; settings: pH 7.4; 38 °C
T2 sequence (P19643 whole entry): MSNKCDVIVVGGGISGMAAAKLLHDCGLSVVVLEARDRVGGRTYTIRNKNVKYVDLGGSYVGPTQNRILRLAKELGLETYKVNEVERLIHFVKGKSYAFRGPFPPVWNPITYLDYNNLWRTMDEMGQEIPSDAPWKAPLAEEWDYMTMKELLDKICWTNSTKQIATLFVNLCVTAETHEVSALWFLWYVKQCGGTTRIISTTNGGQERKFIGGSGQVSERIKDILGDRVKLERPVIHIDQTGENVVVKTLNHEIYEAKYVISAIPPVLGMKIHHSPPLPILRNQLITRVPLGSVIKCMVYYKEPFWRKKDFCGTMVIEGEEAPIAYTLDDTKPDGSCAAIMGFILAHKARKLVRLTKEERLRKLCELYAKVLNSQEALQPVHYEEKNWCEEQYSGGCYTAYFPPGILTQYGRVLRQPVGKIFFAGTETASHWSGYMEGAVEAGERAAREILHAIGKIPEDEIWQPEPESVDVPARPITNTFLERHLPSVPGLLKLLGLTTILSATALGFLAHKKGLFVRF

[3] = molecular target: Carboxylic ester hydrolase (Equus caballus, UniProt Q9N1N9); assay: AChE and BuChE Inhibition Assay; settings: pH 8; 25 °C
Chain of Carboxylic ester hydrolase (Q9N1N9 whole entry): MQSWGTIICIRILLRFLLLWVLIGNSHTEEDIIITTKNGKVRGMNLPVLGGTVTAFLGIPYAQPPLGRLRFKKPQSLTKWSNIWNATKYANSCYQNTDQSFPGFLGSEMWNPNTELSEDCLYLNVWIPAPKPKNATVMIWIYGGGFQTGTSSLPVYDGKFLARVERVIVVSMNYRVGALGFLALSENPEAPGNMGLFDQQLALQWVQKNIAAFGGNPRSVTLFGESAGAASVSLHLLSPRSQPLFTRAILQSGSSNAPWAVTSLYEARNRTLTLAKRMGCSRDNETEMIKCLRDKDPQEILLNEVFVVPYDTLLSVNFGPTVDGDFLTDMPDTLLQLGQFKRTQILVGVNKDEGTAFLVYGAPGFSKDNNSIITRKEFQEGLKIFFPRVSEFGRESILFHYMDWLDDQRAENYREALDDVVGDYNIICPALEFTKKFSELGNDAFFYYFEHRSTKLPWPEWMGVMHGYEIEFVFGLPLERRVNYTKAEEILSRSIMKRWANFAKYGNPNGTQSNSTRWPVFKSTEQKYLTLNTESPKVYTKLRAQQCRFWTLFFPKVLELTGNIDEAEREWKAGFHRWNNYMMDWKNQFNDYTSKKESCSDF
Description: (§1) This spectrophotometric assay is based on the reaction of 5,5-dithio-bis(2-nitrobenzoic)acid (DTNB) with thiocholine to yield a colored product. Shimadzu (Kyoto, Japan) UV-1700 UV-vis spectrophotometer was used to record the measurements. The enzyme solutions were prepared at 2.5 units/mL concentrationin 1% gelatin solution. BChE/AChE and compound solutions (50 μL each) in 2% DMSO at 10^-1-10^-6 mM concentration were added to 3 mL phosphate buffer (pH 8 &plusnm; 0.1)followed by incubation for 5 min at 25 °C. The reaction was commenced by the addition of acetylthiocholine iodide (ATC) (10 μL) and DTNB (50 μL) to the enzyme-inhibitor mixture. […] The blank reading contained 10 μL substrate, 50 μL DTNB, 50 μL (2%) DMSO, and 3 mL buffer. The reaction was performed in triplicate.

Acetylcholinesterase = Acetylcholinesterase (Electrophorus electricus, UniProt O42275); assay: AChE and BuChE Inhibition Assay; settings: pH 8; 25 °C
Chain of Acetylcholinesterase (O42275 whole entry): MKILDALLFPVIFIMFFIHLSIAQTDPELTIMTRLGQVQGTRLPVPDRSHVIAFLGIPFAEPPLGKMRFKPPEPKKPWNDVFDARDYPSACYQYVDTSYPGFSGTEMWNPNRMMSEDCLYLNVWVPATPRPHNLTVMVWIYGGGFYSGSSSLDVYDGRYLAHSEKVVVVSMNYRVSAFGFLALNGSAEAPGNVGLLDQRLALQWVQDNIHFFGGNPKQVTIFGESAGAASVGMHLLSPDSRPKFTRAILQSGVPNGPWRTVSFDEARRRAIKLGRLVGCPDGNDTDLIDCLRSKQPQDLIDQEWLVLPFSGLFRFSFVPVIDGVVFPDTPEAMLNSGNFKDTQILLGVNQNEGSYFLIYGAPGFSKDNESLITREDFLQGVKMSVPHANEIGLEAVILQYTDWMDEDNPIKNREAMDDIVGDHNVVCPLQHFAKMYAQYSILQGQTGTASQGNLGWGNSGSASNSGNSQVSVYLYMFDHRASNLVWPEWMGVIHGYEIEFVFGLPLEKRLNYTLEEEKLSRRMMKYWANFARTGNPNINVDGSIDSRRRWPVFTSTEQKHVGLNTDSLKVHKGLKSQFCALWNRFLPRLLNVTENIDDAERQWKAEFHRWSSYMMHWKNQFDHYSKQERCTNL
Description: as §1

## COc1cc(/C=C2\CC(C)c3ccccc3C2=O)c(Br)c(OC)c1OC (stereo unspecified) [2-(2-Bromo-3,4,5-trimethoxy-benzylidene)-4-methyl-tetralone (3f)]
[1]
  IC50: 0.92 µM
[2]
  IC50: 0.88 µM
[3]
  IC50: 12.5 µM
Acetylcholinesterase
  IC50: 0.045 µM

## COc1ccc(OC)c2c1CC/C(=C\c1cc(OC)c(OC)c(OC)c1Br)C2=O [2-(2-Bromo-3,4,5-trimethoxy-benzylidene)-5,8-dimethoxy-tetralone (3x)]
[1]
  IC50: > 100 µM
[2]
  IC50: > 100 µM
[3]
  IC50: 9.8 µM
Acetylcholinesterase
  IC50: 0.27 µM

## COc1ccc2c(c1)CC/C(=C\c1cc(OC)c(OC)c(OC)c1Br)C2=O [2-(2-Bromo-3,4,5-trimethoxy-benzylidene)-6-methoxy-tetralone (3o)]
[1]
  IC50: 32.2 µM
[2]
  IC50: 12.4 µM
[3]
  IC50: 17.5 µM
Acetylcholinesterase
  IC50: 1.2 µM

## COc1cc(/C=C2\CCc3ccc([N+](=O)[O-])cc3C2=O)c(Br)c(OC)c1OC [2-(2-Bromo-3,4,5-trimethoxy-benzylidene)-7-nitro-tetralone (3ag)]
[1]
  IC50: 0.99 µM
[2]
  IC50: 0.91 µM
[3]
  IC50: 6.2 µM
Acetylcholinesterase
  IC50: 0.57 µM

## COc1ccc(/C=C2\CCc3ccc([N+](=O)[O-])cc3C2=O)c(Cl)c1OC [2-(2-Chloro-3,4-dimethoxy-benzylidene)-7-nitro-tetralone (3af)]
[1]
  IC50: 1.24 µM
[2]
  IC50: 2.9 µM
[3]
  IC50: 17.5 µM
Acetylcholinesterase
  IC50: 2.92 µM

## COc1cc(/C=C2\CCc3ccccc3C2=O)c(Br)c(OC)c1OC [(2E)-2-[(2-bromo-3,4,5-trimethoxyphenyl)methylidene]-1,2,3,4-tetrahydronaphthalen-1-one (3c)]
[1]
  IC50: 27.3 µM
[2]
  IC50: 5.6 µM
[3]
  IC50: > 100 µM
Acetylcholinesterase
  IC50: 12.4 µM

## COc1cc(/C=C2\CCc3c(O)cccc3C2=O)c(Br)c(OC)c1OC [(2E)-2-[(2-bromo-3,4,5-trimethoxyphenyl)methylidene]-5-hydroxy-1,2,3,4-tetrahydronaphthalen-1-one (3i)]
[1]
  IC50: > 100 µM
[2]
  IC50: 37.2 µM
[3]
  IC50: 76.9 µM
Acetylcholinesterase
  IC50: > 100 µM

## COc1cccc2c1CC/C(=C\c1cc(OC)c(OC)c(OC)c1Br)C2=O [(2E)-2-[(2-bromo-3,4,5-trimethoxyphenyl)methylidene]-5-methoxy-1,2,3,4-tetrahydronaphthalen-1-one (3r)]
[1]
  IC50: > 100 µM
[2]
  IC50: 56 µM
[3]
  IC50: 92.5 µM
Acetylcholinesterase
  IC50: 67.2 µM

## COc1cc2c(cc1OC)C(=O)/C(=C/c1cc(OC)c(OC)c(OC)c1Br)CC2 [(2E)-2-[(2-bromo-3,4,5-trimethoxyphenyl)methylidene]-6,7-dimethoxy-1,2,3,4-tetrahydronaphthalen-1-one (3u)]
[1]
  IC50: > 100 µM
[2]
  IC50: 2.9 µM
[3]
  IC50: > 100 µM
Acetylcholinesterase
  IC50: 4.5 µM

## COc1cc(/C=C2\CCc3ccc(Cl)cc3C2=O)c(Br)c(OC)c1OC [(2E)-2-[(2-bromo-3,4,5-trimethoxyphenyl)methylidene]-7-chloro-1,2,3,4-tetrahydronaphthalen-1-one (3l)]
[1]
  IC50: > 100 µM
[2]
  IC50: > 100 µM
[3]
  IC50: 48.9 µM
Acetylcholinesterase
  IC50: > 100 µM

## COc1cc(/C=C2\CCc3ccc(F)cc3C2=O)c(Br)c(OC)c1OC [(2E)-2-[(2-bromo-3,4,5-trimethoxyphenyl)methylidene]-7-fluoro-1,2,3,4-tetrahydronaphthalen-1-one (3ad)]
[1]
  IC50: 10.9 µM
[2]
  IC50: 1.2 µM
[3]
  IC50: 89.4 µM
Acetylcholinesterase
  IC50: > 100 µM

## COc1ccc(/C=C2\CC(C)c3ccccc3C2=O)c(Cl)c1OC (stereo unspecified) [(2E)-2-[(2-chloro-3,4-dimethoxyphenyl)methylidene]-4-methyl-1,2,3,4-tetrahydronaphthalen-1-one (3e)]
[1]
  IC50: 8.9 µM
[2]
  IC50: 1.9 µM
[3]
  IC50: 27.2 µM
Acetylcholinesterase
  IC50: 0.12 µM

## COc1ccc(OC)c2c1CC/C(=C\c1ccc(OC)c(OC)c1Cl)C2=O [(2E)-2-[(2-chloro-3,4-dimethoxyphenyl)methylidene]-5,8-dimethoxy-1,2,3,4-tetrahydronaphthalen-1-one (3w)]
[1]
  IC50: > 100 µM
[2]
  IC50: > 100 µM
[3]
  IC50: 24.7 µM
Acetylcholinesterase
  IC50: 2.4 µM

## COc1ccc(/C=C2\CCc3c(O)cccc3C2=O)c(Cl)c1OC [(2E)-2-[(2-chloro-3,4-dimethoxyphenyl)methylidene]-5-hydroxy-1,2,3,4-tetrahydronaphthalen-1-one (3h)]
[1]
  IC50: > 100 µM
[2]
  IC50: 48.9 µM
[3]
  IC50: > 100 µM
Acetylcholinesterase
  IC50: > 100 µM

## COc1cccc2c1CC/C(=C\c1ccc(OC)c(OC)c1Cl)C2=O [(2E)-2-[(2-chloro-3,4-dimethoxyphenyl)methylidene]-5-methoxy-1,2,3,4-tetrahydronaphthalen-1-one (3q)]
[1]
  IC50: > 100 µM
[2]
  IC50: 63.7 µM
[3]
  IC50: > 100 µM
Acetylcholinesterase
  IC50: 81.2 µM

## COc1cc2c(cc1OC)C(=O)/C(=C/c1ccc(OC)c(OC)c1Cl)CC2 [(2E)-2-[(2-chloro-3,4-dimethoxyphenyl)methylidene]-6,7-dimethoxy-1,2,3,4-tetrahydronaphthalen-1-one (3t)]
[1]
  IC50: > 100 µM
[2]
  IC50: 5.4 µM
[3]
  IC50: > 100 µM
Acetylcholinesterase
  IC50: 27.2 µM

## COc1ccc2c(c1)CC/C(=C\c1ccc(OC)c(OC)c1Cl)C2=O [(2E)-2-[(2-chloro-3,4-dimethoxyphenyl)methylidene]-6-methoxy-1,2,3,4-tetrahydronaphthalen-1-one (3n)]
[1]
  IC50: 47.2 µM
[2]
  IC50: 19.2 µM
[3]
  IC50: 22.9 µM
Acetylcholinesterase
  IC50: 14.6 µM

## COc1ccc(/C=C2\CCc3ccc(F)cc3C2=O)c(Cl)c1OC [(2E)-2-[(2-chloro-3,4-dimethoxyphenyl)methylidene]-7-fluoro-1,2,3,4-tetrahydronaphthalen-1-one (3ac)]
[1]
  IC50: 17.2 µM
[2]
  IC50: 2.9 µM
[3]
  IC50: > 100 µM
Acetylcholinesterase
  IC50: > 100 µM

## COc1cccc(/C=C2\CC(C)c3ccccc3C2=O)c1Cl (stereo unspecified) [(2E)-2-[(2-chloro-3-methoxyphenyl)methylidene]-4-methyl-1,2,3,4-tetrahydronaphthalen-1-one (3d)]
[1]
  IC50: 10.2 µM
[2]
  IC50: 3.2 µM
[3]
  IC50: 49.9 µM
Acetylcholinesterase
  IC50: 1.9 µM

## COc1cccc(/C=C2\CCc3c(OC)ccc(OC)c3C2=O)c1Cl [(2E)-2-[(2-chloro-3-methoxyphenyl)methylidene]-5,8-dimethoxy-1,2,3,4-tetrahydronaphthalen-1-one (3v)]
[1]
  IC50: > 100 µM
[2]
  IC50: > 100 µM
[3]
  IC50: > 100 µM
Acetylcholinesterase
  IC50: 13.2 µM

## COc1cccc(/C=C2\CCc3c(O)cccc3C2=O)c1Cl [(2E)-2-[(2-chloro-3-methoxyphenyl)methylidene]-5-hydroxy-1,2,3,4-tetrahydronaphthalen-1-one (3g)]
[1]
  IC50: > 100 µM
[2]
  IC50: 56.4 µM
[3]
  IC50: > 100 µM
Acetylcholinesterase
  IC50: > 100 µM

## COc1cccc(/C=C2\CCc3c(OC)cccc3C2=O)c1Cl [(2E)-2-[(2-chloro-3-methoxyphenyl)methylidene]-5-methoxy-1,2,3,4-tetrahydronaphthalen-1-one (3p)]
[1]
  IC50: > 100 µM
[2]
  IC50: 78.9 µM
[3]
  IC50: > 100 µM
Acetylcholinesterase
  IC50: 89.5 µM

## COc1cc2c(cc1OC)C(=O)/C(=C/c1cccc(OC)c1Cl)CC2 [(2E)-2-[(2-chloro-3-methoxyphenyl)methylidene]-6,7-dimethoxy-1,2,3,4-tetrahydronaphthalen-1-one (3s)]
[1]
  IC50: > 100 µM
[2]
  IC50: 7.2 µM
[3]
  IC50: > 100 µM
Acetylcholinesterase
  IC50: 29.5 µM

## COc1ccc2c(c1)CC/C(=C\c1cccc(OC)c1Cl)C2=O [(2E)-2-[(2-chloro-3-methoxyphenyl)methylidene]-6-methoxy-1,2,3,4-tetrahydronaphthalen-1-one (3m)]
[1]
  IC50: > 100 µM
[2]
  IC50: > 100 µM
[3]
  IC50: > 100 µM
Acetylcholinesterase
  IC50: 43.9 µM
